Legend:
Assay type in all cases: cell-based, rat
[1] = tested on: co-cultured hippocampal (HP-CoCul) cells; assay: Growth supporting effect on co-cultures with BMSCs (phase contrast microscopy); details: 24 h, FIG. 2
Procedure: (§1) Wistar rats (150-200 gm) were used to isolate bone marrow (BM). Rats were sacrificed and their femurs were removed aseptically. The bone marrow (BM) was flushed from the shaft of the bone by clipping of the epiphysial ends and flushing using a 26-gauge needle with ˜2 ml of Dulbecco's Modified Eagle's medium (DMEM) supplemented with 5% FBS, 1% penicillin/streptomycin solution, 1% sodium pyruvate and L-glutamine. The BM was then centrifuged for 8 minutes at 1000 rpm. Following centrifugation, cell pellet was collected and 1 ml of fresh DMEM was added. The cell viability was checked using trypan blue exclusion method. The cells were then divided into three equal parts. One part was co-cultured with freshly isolated hippocampal cells in T75 cm^2 flask, 2nd with freshly isolated cortical cells and the third portion (BM cells only) was cultured as a control. The cell density for co-cultures was set at 140,000 cells/ml for each type of culture. The cultured flasks were then incubated at 37° C. and 5% CO2. After 4-5 days, floating hematopoietic cells and dead debris/tissues of hippocampus and cortex were removed and bone marrow stromal cells (BMSCs) were recovered due to their tendency to adhere. Medium was replaced after every 3 to 4 days till cells became 80-90% confluent.
(§2) To evaluate the growth supporting effect of isoxylitones the hippocampal, cortical and co-cultured cells were plated in 6-well plates and treated with 25 μg/mL, 50 μg/mL, 75 μg/mL and 150 μg/mL doses of isoxylitones. Cells with no treatment were set as a control. The plates were incubated for 24 and 72 hrs in a humidified chamber at 37° C. in 5% CO2. To assess the morphology of the treated cells, images were captured and digitalized with Nikon TE-2000 inverted microscope equipped with phase-contrast optics to measure the difference of control group from treated group. The cells were observed carefully in order to check if they maintain their morphological characteristics after treatment with the compound. The doses which supported the maximum proliferation were used for proliferation assays i.e., AlamarBlue and BrdU assay.

[2] = tested on: co-cultured cortical (CTX-CoCul) cells; assay: as above; details: 24 h, FIG. 2
Procedure: as §1, §2

cortical cells = assay: BrdU proliferation ELISA assay; details: 150 μg/ml, 24 h, FIG. 5
Procedure: BrdU-Incorporation Assay: For measuring the newly synthesized cells during proliferation of treated and un-treated cultured hippocampal, cortical and co-cultured cells, the BrdU (Calbiochem®, CA, USA) cell proliferation ELISA kit was used. This immunoassay is based on the measurement of BrdU (5-bromo-2′-deoxiurydine) incorporation into DNA during division phase of the proliferating cells. For BrdU proliferation assay, primary cultured cells were grown in 75 cm flasks and when cells were confluent they were trypsinized and re-plated with a cell density of 1×10^5 cells/mL in 96-well tissue culture grade flat bottom ELISA plates, i.e., (10,000 cells/well) in DMEM medium (high glucose). The plates were incubated overnight at 37° C. in 5% CO2. Next day, media was changed and adherent cells were treated with different doses of isoxylitones, i.e., 25, 50, 75, 100, and 150 μg/mL and incubated for 24 hrs in a humidified chamber at 37° C. and 5% CO2.
The following day, the cells were first labeled by the 20 μL of BrdU (1:2000) in fresh medium and kept in a humidified atmosphere at 37° C. for 24 hrs. During 20-24 hrs of labeling period, BrdU is incorporated in place of thymidine into the DNA of the proliferating cells. After removing the labeling medium by tapping off the plate, cells were fixed, and DNA denatured in one step by adding 200 μL of fixative or Denat solution (provided in the kit) in each well following incubation for 30 minutes at room temperature.
The fixation and denaturation of DNA is required to expose the incorporated BrdU for detection by the antibody. The fixative or Denat solution was removed by flicking off and tapping on paper towel. […] The immune complexes were detected by the subsequent substrate reaction and the absorbance was measured on spectrophotometer plate reader at dual wave lengths of 450-595 nm within 30 minutes of adding the stop solution. The data was analyzed using SPSS and graphs were made on Excel.

hypoxic cortical cells = assay: In-vitro model of hypoxic pre-conditioning; details: 2 h hypoxia then treatment at various concentrations, vs positive control hypoxic cells, FIG. 7
hippocampal (HP) cells = assay: Growth supporting effect on neuronal cultures (phase contrast microscopy); details: FIG. 1
Procedure: (§3) For isolation of hippocampal and cortical neurons, two days old rat pups were sacrificed under sterile conditions. Brain samples were carefully isolated and hippocampal and cortical regions were dissected out and placed in ice-cold PBS supplemented with 1% penicillin-streptomycin. Tissue was chopped in small pieces with a sterile scalpel and washed three times with PBS. Subsequently tissues were digested in typsin-EDTA solution (0.05% of trypsin) for 7 minutes at 37° C. and 5% CO2 in a humidified chamber. After typsinisation, cells were washed three times in Dulbecco's Modified Eagle's Medium (DMEM) media containing 5% FBS and finally triturated using flame-polished Pasteur pipette to prepare dissociated cell suspension. The cell suspensions were then centrifuged at 1200 rpm for 4 minutes, supernatants were discarded and cell pellets were re-suspended in 1 mL complete media to find out the cell count and viability. Cells were finally cultured in DMEM (high glucose), supplemented with 10% fetal bovine serum (FBS), 1% L-Glutamine, 1% penicillin/streptomycin (10,000 U/mL and 10 mg/mL, resp.), and 1% sodium pyruvate. The culture flasks (75 cm^2) were then incubated at 37° C. with 5% CO2. Cells were examined daily for any change in morphology or contamination. Media was changed twice or thrice weekly. All cell work was done in a tissue culture hood under sterile conditions.
as §2

cortical (CTX) cells = assay: as above; details: cortical cells treated for 24 h, FIG. 1
Procedure: as §3, §2

[3] = hippocampal cells treated for 24 h

In the case of `CC(=O)C=C1C=C(C)CC(C)(C)C1` (mixture of isomers) [isoxylitones], the “number of proliferating cells” value ([1]; HP-CoCul cells) is reported as “Marked increase”, the variation in morphology ([1]; HP-CoCul cells) is reported as “no significant variation in the morphology” and the “rate of proliferation in hippocampus cells as compared to cortical cells” value ([1]; co-cultured cells) is reported as “almost double”. The “number of proliferating cells” value [2] was “Marked increase”, the variation in morphology [2] was “no significant variation in the morphology” and the BrdU positive cells (cortical cells) was “slightly increased BrdU positive cells”. For the same compound, the “recovery of hypoxic cells (phase-contrast morphology)” value (hypoxic cortical cells) was “Recovery of hypoxic cells clearly observed”, the effect on morphology (hippocampal (HP) cells; [3]) was “without any significant change in morphology” and the “proliferation (phase contrast photomicrographs)” value (hippocampal (HP) cells; [3]) was “increased proliferation”. The “proliferation of treated hippocampal cells compared to cortical cells” value (hippocampal (HP) cells; treated for 24 h) was “higher proliferation as compared to cortical cells”, the effect on morphology (cortical (CTX) cells) was “without any significant change in morphology” and the “proliferation (phase contrast photomicrographs)” value (cortical (CTX) cells) was “increased proliferation”.

From patent US11065211B2, “Isoxylitones mediated neurogenesis” (priority 2018, dated 2021)
